Entries after “also recorded” stand apart in the source; their conditions may differ.
How the values were obtained:
[1] = Phase I Part 1: plasma pharmacokinetics after single oral dose; format: in vivo, human; details: for MRT / AUC0−∞ / Cmax / T1/2: geometric mean
Description: (§1) To test dose proportionality, PK parameters were analyzed graphically as AUC/dose and Cmax/dose and via a power model (PK parameter=α*dose^β) approach with log-transformed PK parameters as the dependent variable and log-transformed dose as the independent variable.

[2] = Phase I Part 2: plasma pharmacokinetics Day 1 and Day 14 of once daily dosing; format: in vivo, human; details: for MRT: human, plasma, oral
Description: as §1

[3] = tested on: human patients suffering from relapsing multiple sclerosis (RMS); assay: Phase II RMS study: qualified relapse assessment (ARR, relapse-free status); format: in vivo; details: for Qualified relapse rate, adjusted / Qualified relapses, number of relapses: 24 weeks; for Proportion relapse-free / Unadjusted ARR: Week 24
Description: The assessing Investigator and central MRI reader were treatment blinded.
Subjects were assessed for MS relapse at visits beginning at Week 4. Relapse was also assessed at any Unscheduled Visit for Neurological Worsening and Relapse Assessment. For subjects in the OLE Period, MS relapse was assessed at all visits. A qualifying relapse was defined as new, worsening or recurrent neurological symptoms attributed to MS that last for at least 24 hours without fever or infection, or adverse reaction to prescribed medication, preceded by a stable or improving neurological status of at least 30 days. The relapse must have been accompanied by new clinical signs (i.e., changes in the neurological examination or an increase in EDSS score).
The protocol specified that all cases of potential relapse were to be objectively confirmed by the Investigator regardless of whether they were identified during a scheduled or unscheduled visit. Any assessments needed to confirm the relapse were to be performed, and details of the relapse were to be documented within the relevant section(s) of the eCRF.
Additional Secondary Endpoints
Analysis of secondary endpoints was based on the mITT analysis set. […] Descriptive statistics for ARR were calculated for each treatment group as the total number of qualified relapses divided by the number of subject-years of observation.
(§2) Primary and secondary efficacy endpoints were analysed based on the modified intention-to-treat (mITT) analysis set, consisting of all randomized patients with at least one available baseline and one post-baseline MRI assessment. […] For each endpoint, rate ratio (RR; null-hypothesis RR=1.0) adjusted for baseline disease activity was reported together with associated 95% CI and p-value. The T2 lesion endpoint was analysed similarly. Dose-response relationships between evobrutinib treatment dose and primary and key secondary endpoints were assessed for linear and monotonic trend. The analysis of CFB in cube root of volume of T2 lesions at Week 24 was based on a mixed-effect model for repeated measures, with fixed effects for treatment, week of visit, and treatment-by-week interaction, random effect for subject, and adjustment for baseline cube root of lesion volume. CFB in SF-36 score at Week 24 was analysed similarly. Descriptive statistics were used to further describe the study outcomes.

[4] = tested on: human patients suffering from relapsing multiple sclerosis (RMS); assay: Phase II RMS study: HRQoL SF-36 Physical Component Summary score; format: in vivo; details: for Difference in LS means of CFB in PCS score vs placebo: week 24, MMRM
Description: Analysis of Primary Endpoint
as §2

[5] = Clinical trial of relative bioavailability of tablet vs powder-in-capsule incl. food effect in healthy volunteers; format: in vivo, human; details: oral administration in proximity in time to food (fed vs fasted)
[6] = tested on: B cells; details: in vitro and ex vivo; cited from earlier work
[7] = tested on: B- and T-cell-mediated EAE mouse models; details: cited from earlier work
[8] = multiple-dose study Day 1, 25 mg, geometric mean
[9] = multiple-dose study Day 1, 75 mg, geometric mean
[10] = multiple-dose study Day 1, 200 mg, geometric mean
[11] = multiple-dose study Day 14, 25 mg once daily, geometric mean
[12] = multiple-dose study Day 14, 75 mg once daily, geometric mean
[13] = multiple-dose study Day 14, 200 mg once daily, geometric mean
[14] = 75 mg QD, listed as evobrutinib

In the case of `C=CC(=O)N1CCC(CNc2ncnc(N)c2-c2ccc(Oc3ccccc3)cc2)CC1` [Evobrutinib, 1-(4-(((6-amino-5-(4-phenoxyphenyl)pyrimidin-4-yl)amino)methyl)piperidin-1-yl)prop-2-en-1-one], the “Time after dosing up to which concentrations above LLOQ were measurable” value ([1]; 350 and 500 mg, some (n=3) subjects) is reported as “up to 48 h”, the Vd/F ([1]; both sexes, human, plasma, oral, all doses, read-out: Relevant Vz/F) is reported as ~650 L and the MRT ([1]; human, plasma, oral, single dose 25 mg) is reported as 1.82 h. It also gave an MRT ([1]; human, plasma, oral, single dose 50 mg) of 1.82 h, an MRT ([1]; human, plasma, oral, single dose 100 mg) of 1.7 h and an MRT ([1]; human, plasma, oral, single dose 200 mg) of 1.8 h. The MRT ([1]; human, plasma, oral, single dose 350 mg) was 2.26 h, the MRT ([1]; human, plasma, oral, single dose 500 mg) was 2.19 h and the “PK profile in words (clearance, Vz/f, t1/2)” value ([1]; humans) was “moderate-to-high plasma clearance, medium Vz/f, and short t1/2”. For the same compound, the “Apparent clearance (CL/F)” value ([1]; range across single doses) was 2,553-3,995 mL/min, the “AUC0−∞” value ([1]; single dose 25 mg) was 104 ng·h/mL and the Cmax ([1]; single dose 25 mg) was 69.9 ng/mL. The T1/2 ([1]; single dose 25 mg) was 1.80 h, the “AUC0−∞” value ([1]; single dose 50 mg) was 326 ng·h/mL and the Cmax ([1]; single dose 50 mg) was 234 ng/mL. The T1/2 ([1]; single dose 50 mg) was 2.06 h, the “AUC0−∞” value ([1]; single dose 100 mg) was 434 ng·h/mL and the Cmax ([1]; single dose 100 mg) was 309 ng/mL. The T1/2 ([1]; single dose 100 mg) was 2.56 h, the “AUC0−∞” value ([1]; single dose 200 mg) was 856 ng·h/mL and the Cmax ([1]; single dose 200 mg) was 555 ng/mL. For the same compound, the T1/2 ([1]; single dose 200 mg) was 2.09 h, the “AUC0−∞” value ([1]; single dose 350 mg) was 1,910 ng * h/mL and the Cmax ([1]; single dose 350 mg) was 846 ng/mL. The T1/2 ([1]; single dose 350 mg) was 6.81 h, the “AUC0−∞” value ([1]; single dose 500 mg) was 3,220 ng * h/mL and the Cmax ([1]; single dose 500 mg) was 1510 ng/mL. For the same compound, the T1/2 ([1]; single dose 500 mg) was 6.63 h, the “Apparent geometric mean terminal half-life (t1/2)” value ([1]; single doses 25-200 mg) was 1.8 to 2.6 h and the “Apparent geometric mean terminal half-life (t1/2)” value ([1]; single doses 350 and 500 mg) was 6.6 to 6.8 h. The “Plasma concentration remaining after Cmax” value ([1]; within 8 h, dose-independent) was “less than 1 % of Cmax”, the “Relevant t1/2” value ([1]; within the first 8 h, all doses) was ~2 h and the “Dose proportionality of AUC and Cmax” value ([2]; 25-500 mg single dose, 25-200 mg once daily multiple dose) was “demonstrated following multiple dosing of 25-200 mg; also recorded: dose-proportional over a 25-500 mg single-dose range and a 25-200 mg once daily multiple-dose range”. The “Time dependency of PK” value ([2]; 14 days repeated daily dosing) was “no time dependency”, the MRT ([2]; 25 mg, multiple-dose study Day 1, 25 mg, geometric mean) was 1.66 h and the MRT ([2]; 25 mg, multiple-dose study Day 14, 25 mg once daily, geometric mean) was 1.81 h. For the same compound, the MRT ([2]; 75 mg, multiple-dose study Day 1, 75 mg, geometric mean) was 1.67 h, the MRT ([2]; 75 mg, multiple-dose study Day 14, 75 mg once daily, geometric mean) was 1.79 h and the MRT ([2]; 200 mg, multiple-dose study Day 1, 200 mg, geometric mean) was 1.72 h. For the same compound, the MRT ([2]; 200 mg, multiple-dose study Day 14, 200 mg once daily, geometric mean) was 1.92 h, the “AUC0−∞” value [2, 8] was 123 ng·h/mL and the Cmax [2, 8] was 99.7 ng/mL. For the same compound, the T1/2 [2, 8] was 1.70 h, the “AUC0−∞” value [2, 9] was 325 ng·h/mL and the CL/F [2, 9] was 3850 mL/min. The Cmax [2, 9] was 254 ng/mL, the T1/2 [2, 9] was 1.86 h and the “AUC0−∞” value [2, 10] was 1110 ng·h/mL. The Cmax [2, 10] was 797 ng/mL, the T1/2 [2, 10] was 2.49 h and the “AUC0−24h” value [2, 11] was 126 ng·h/mL. The Cmax [2, 11] was 80.4 ng/mL, the T1/2 [2, 11] was 1.59 h and the “AUC0−24h” value [2, 12] was 345 ng·h/mL. For the same compound, the Cmax [2, 12] was 252 ng/mL, the T1/2 [2, 12] was 2.29 h and the “AUC0−24h” value [2, 13] was 1,210 ng * h/mL. For the same compound, the Cmax [2, 13] was 782 ng/mL, the T1/2 [2, 13] was 3.62 h and the “Accumulation with multiple dosing” value ([2]; once daily, 14 days) was “no accumulation with multiple dosing; also recorded: without accumulation after multiple dosing”. The “t½ after multiple dosing” value ([2]; range across 25-200 mg once daily) was 1.6 to 3.6 h, the “Qualified relapse rate, adjusted” value ([3]; 25 mg QD) was 0.47 and the “Qualified relapses, number of relapses” value ([3]; 25 mg QD) was 12 n. The Proportion relapse-free ([3]; 25 mg QD) was 76.0%, the “Unadjusted ARR” value ([3]; 25 mg QD) was 0.52 and the Proportion relapse-free ([3]; 25 mg QD, listed as evobrutinib) was 76%. The “Qualified relapse rate, adjusted” value ([3]; 75 mg BID) was 0.07, the “Qualified relapses, number of relapses” value ([3]; 75 mg BID) was 2 n and the Proportion relapse-free ([3]; 75 mg BID) was 86.8%. For the same compound, the “Unadjusted ARR” value ([3]; 75 mg BID) was 0.08, the Proportion relapse-free ([3]; 75 mg BID, listed as evobrutinib) was 87% and the “Qualified relapse rate, adjusted” value ([3]; 75 mg QD) was 0.10. For the same compound, the “Qualified relapses, number of relapses” value ([3]; 75 mg QD) was 3 n, the Proportion relapse-free ([3]; 75 mg QD) was 88.2% and the “Unadjusted ARR” value ([3]; 75 mg QD) was 0.13. For the same compound, the Proportion relapse-free [3, 14] was 88%, the “Change in SF-36 PCS score from baseline to week 24, Mean ± SD” value (shortened to “Change in SF-36 PCS score … Mean ± SD”) ([4]; 25 mg QD) was 0.8 ± 5.93 and the “Change in SF-36 PCS score from baseline to week 24, Median” value (from here on “Change in SF-36 PCS score … Median”) ([4]; 25 mg QD) was 0.3. For the same compound, the “Difference in LS means of CFB in PCS score vs placebo” value (shortened to “Difference in LS means of CFB”) ([4]; 25 mg QD) was 1.73, the “Change in SF-36 PCS score … Mean ± SD” value ([4]; 75 mg BID) was 1.1 ± 5.22 and the “Change in SF-36 PCS score … Median” value ([4]; 75 mg BID) was 1.3. For the same compound, the “Difference in LS means of CFB” value ([4]; 75 mg BID) was 1.93, the “Change in SF-36 PCS score … Mean ± SD” value ([4]; 75 mg QD) was 1.5 ± 7.09 and the “Change in SF-36 PCS score … Median” value ([4]; 75 mg QD) was 0.6. The “Difference in LS means of CFB” value ([4]; 75 mg QD) was 1.95, the “Change in SF-36 PCS score … Mean ± SD” value [4, 14] was 1.5±7.09 and the “Effect of food on bioavailability” value [5] was “significant increase in the bioavailability”. The “B-cell activation and maturation” value [6] was “inhibits B-cell activation and maturation from naïve to antigen-activated B cells” and the “CNS inflammation, demyelination and disease severity (clinical scoring)” value [7] was “potential to reduce CNS inflammation and demyelination and ameliorate disease severity”.

From patent US12251382B2, “Substituted amino-pyrimidine compound for use in a method for treatment and prevention of multiple sclerosis” (Merck Patent GmbH, priority 2018, dated 2025)
